Laboratory results: PMC5567267, “Discovery of a potent protein kinase D inhibitor: insights in the binding mode of pyrazolo[3,4-d]pyrimidine analogues” (MedChemComm, 2017)
Read-outs that look alike come from different tables or passages of the source.

Target: T1, PKD2 (Homo sapiens, UniProt Q9BZL6)
T1 construct: made in house; host or cells: HEK293T cells, transient transfection with pDEST27-PRKD2, stimulated with 500 nM PDB before lysis
T1 sequence (Q9BZL6 1-878): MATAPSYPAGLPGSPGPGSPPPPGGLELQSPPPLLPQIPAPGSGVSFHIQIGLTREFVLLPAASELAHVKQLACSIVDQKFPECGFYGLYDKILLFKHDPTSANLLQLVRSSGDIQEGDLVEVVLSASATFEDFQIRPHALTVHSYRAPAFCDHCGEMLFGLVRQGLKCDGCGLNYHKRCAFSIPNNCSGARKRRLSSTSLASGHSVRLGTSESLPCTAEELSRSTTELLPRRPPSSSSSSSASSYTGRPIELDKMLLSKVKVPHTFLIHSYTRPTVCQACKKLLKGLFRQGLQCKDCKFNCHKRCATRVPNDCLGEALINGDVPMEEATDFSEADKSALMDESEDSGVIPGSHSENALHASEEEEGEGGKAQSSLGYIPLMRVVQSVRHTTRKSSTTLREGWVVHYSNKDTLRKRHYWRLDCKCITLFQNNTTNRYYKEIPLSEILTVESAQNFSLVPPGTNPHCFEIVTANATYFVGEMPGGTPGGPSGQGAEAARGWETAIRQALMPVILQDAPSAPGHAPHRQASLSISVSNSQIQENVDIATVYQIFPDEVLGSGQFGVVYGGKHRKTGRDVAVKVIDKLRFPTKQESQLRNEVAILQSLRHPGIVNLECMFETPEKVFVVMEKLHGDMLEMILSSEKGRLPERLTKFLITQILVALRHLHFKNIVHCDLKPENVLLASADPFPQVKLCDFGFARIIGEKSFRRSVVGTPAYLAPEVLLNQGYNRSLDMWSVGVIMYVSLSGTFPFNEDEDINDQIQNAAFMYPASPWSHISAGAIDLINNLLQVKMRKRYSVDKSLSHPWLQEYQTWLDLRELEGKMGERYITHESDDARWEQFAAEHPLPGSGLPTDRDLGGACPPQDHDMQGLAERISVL
Experiment: PKD2 screening assay (in vitro radiometric kinase assay)
Type: biochemical
Details: for remaining activity at 1 µM: 10 min; for IC50: radiometric
Experimental: All 35 described analogues were characterized in vitro via an initial screening at 1 μM against PKD2. […]
scanning of a coomassie stained SDS-polyacrylamide gel.
An in vitro radiometric assay was used to determine the inhibition of PKD in presence of various compounds at a […]
determinations. Reactions were carried out in 40µl of a mixture containing 50mM Tris-HCl pH 7.4, 10mM MgCl2, 50ng of PDB stimulated GST-PKD2, 4µg/ml Syntide-2 (Sigma Aldrich, St. Louis, USA), 25µM ATP and 2µCi [γ-32P]ATP (Perkin-Elmer, Massachusetts, USA). After 10’ the reaction was stopped by spotting 30µl of the reaction on whatmann P81 filter paper. The filter papers were washed 3 times in 0.5% phosphoric acid, followed by one wash in 100% acetone. Subsequently the papers were air-dried and counted using the Tri-Carb 2810 TR scintillation counter (Perkin-Elmer). Percentage of PKD2 inhibition was determined relative to a condition where no inhibitor was added (0,1% dimethylsulfoxide (DMSO)). Graphs were plotted and IC50 values were determined using the GraphPad software package (Prism). […]

[1] = ESI table, initial screening of all analogues at 1µM, read-out: % PKD2 activity remaining (1µM) (average ±SD)
[2] = compound at 1 μM, PDB stimulated GST-PKD2, Syntide-2, 25µM ATP, relative to no inhibitor (DMSO), read-out: % PKD 2 activity remaining (1 μM) (Average ± SD)
[3] = PDB stimulated GST-PKD2, Syntide-2, 25µM ATP

Molecule	remaining activity at 1 µM [1] [%]	remaining activity at 1 µM [2] [%]	IC50 [3] [nM]	% PKD2 activity remaining (1µM) (average ±SD) (ESI table, initial screening of all analogues at 1µM) [%]
Cn1nc(Cc2cccc(Cl)c2)c2c(N)ncnc21 [Compound 7d, 3-(3-chlorobenzyl)-1-methyl-1H-pyrazolo[3,4-d]pyrimidin-4-amine]	83 ± 6.4	83 ± 6.4	4840	–
CC(C)(C)n1nc(-c2cccc3ccccc23)c2c(N)ncnc21 [Compound 6i, 1-tert-butyl-3-(1-naphthyl)-1H-pyrazolo[3,4-d]pyrimidin-4-amine]	34 ± 0.4	34 ± 0.4	403	–
CC(C)(C)n1nc(-c2ccc(C#N)cc2)c2c(N)ncnc21 [Compound 6j, 4-(4-amino-1-(tert-butyl)-1H-pyrazolo[3,4-d]pyrimidin-3-yl)benzonitrile]	97 ± 0.8	–	–	–
CCCCNc1nc(N)c2c(-c3ccc(OC)cc3)nn(C(C)(C)C)c2n1 [Compound 13d, N6-butyl-1-tert-butyl-3-(4-methoxyphenyl)-1H-pyrazolo[3,4-d]pyrimidine-4,6-diamine]	80 ± 2.5	–	–	–
CCCCNc1nc(N)c2c(-c3cccc(C(F)(F)F)c3)nn(C(C)(C)C)c2n1 [Compound 13f, N6-butyl-1-tert-butyl-3-[3-(trifluoromethyl)phenyl]-1H-pyrazolo[3,4-d]pyrimidine-4,6-diamine]	91 ± 8.5	–	–	–
CC(C)(C)c1ccc(-c2nn(C(C)(C)C)c3ncnc(N)c23)cc1 [Compound 6k, 1-(tert-butyl)-3-(4-(tert-butyl)phenyl)-1H-pyrazolo[3,4-d]pyrimidin-4-amine]	93 ± 1.5	–	–	–
Cn1nc(CCCCc2ccccc2)c2c(N)ncnc21 [Compound 7l, 1-methyl-3-(4-phenylbutyl)-1H-pyrazolo[3,4-d]pyrimidin-4-amine]	98 ± 6.4	–	–	–
CCCCNc1nc(N)c2c(-c3ccc(F)cc3)nn(C(C)(C)C)c2n1 [Compound 13c, N6-butyl-1-tert-butyl-3-(4-fluorophenyl)-1H-pyrazolo[3,4-d]pyrimidine-4,6-diamine]	69 ± 8.3	–	–	–
2-acetyl-5-(4-amino-1-(tert-butyl)-1H-pyrazolo[3,4-d]pyrimidin-3-yl)benzaldehyde [Compound 6f]	–	–	–	81 ±4.5
CCCCNc1nc(N)c2c(-c3cccc(Cl)c3)nn(C(C)(C)C)c2n1 [Compound 13b, N6-butyl-1-tert-butyl-3-(3-chlorophenyl)-1H-pyrazolo[3,4-d]pyrimidine-4,6-diamine]	81 ± 6.6	–	–	–
CCCCNc1nc(N)c2c(-c3ccc4ccccc4c3)nn(C(C)(C)C)c2n1 [Compound 13g, N6-butyl-1-tert-butyl-3-(2-naphthyl)-1H-pyrazolo[3,4-d]pyrimidine-4,6-diamine]	76 ± 2.7	–	–	–
CCCCNc1nc(N)c2c(-c3ccsc3)nn(C(C)(C)C)c2n1 [Compound 13e, N6-butyl-1-tert-butyl-3-(3-thienyl)-1H-pyrazolo[3,4-d]pyrimidine-4,6-diamine]	82 ± 7.2	–	–	–
C=Cc1ccc(-c2nn(C(C)(C)C)c3ncnc(N)c23)cc1 [Compound 6g, 1-(tert-butyl)-3-(4-vinylphenyl)-1H-pyrazolo[3,4-d]pyrimidin-4-amine]	84 ± 9.4	–	–	–
CCCCNc1nc(N)c2c(-c3ccccc3)nn(C(C)(C)C)c2n1 [Compound 13a, N6-butyl-1-tert-butyl-3-phenyl-1H-pyrazolo[3,4-d]pyrimidine-4,6-diamine]	77 ± 5.1	–	–	–
Cn1nc(Cc2cccc3ccccc23)c2c(N)ncnc21 [Compound 7m, 1-methyl-3-(1-naphthylmethyl)-1H-pyrazolo[3,4-d]pyrimidin-4-amine]	64 ± 3.9	64 ± 3.9	4660	–
Cn1nc(CCCc2ccccc2)c2c(N)ncnc21 [Compound 7j, 1-methyl-3-(3-phenylpropyl)-1H-pyrazolo[3,4-d]pyrimidin-4-amine]	101 ± 3.3	–	–	–

Second part, led by results:

remaining activity at 1 µM [1] [%]	remaining activity at 1 µM [2] [%]	IC50 [3] [nM]	Molecule	% PKD2 activity remaining (1µM) (average ±SD) (ESI table, initial screening of all analogues at 1µM) [%]
35 ± 1.3	35 ± 1.3	449	CC(C)(C)n1nc(Cc2ccccc2)c2c(N)ncnc21 [Compound 7a, 3-benzyl-1-tert-butyl-1H-pyrazolo[3,4-d]pyrimidin-4-amine]	–
56 ± 2.4	55 ± 2.4	–	CC(C)(C)n1nc(Cc2cccc(Cl)c2)c2c(N)ncnc21 [Compound 7c, 1-tert-butyl-3-(3-chlorobenzyl)-1H-pyrazolo[3,4-d]pyrimidin-4-amine]	–
73 ± 2.4	–	–	CC(C)(C)n1nc(-c2ccccc2Cl)c2c(N)ncnc21 [Compound 6c, 1-tert-butyl-3-(2-chlorophenyl)-1H-pyrazolo[3,4-d]pyrimidin-4-amine]	–
78 ± 3.3	–	–	CC(C)(C)n1nc(Cc2ccc(Cl)c(Cl)c2)c2c(N)ncnc21 [Compound 7h, 1-tert-butyl-3-(3,4-dichlorobenzyl)-1H-pyrazolo[3,4-d]pyrimidin-4-amine]	–
59 ± 5	–	–	CC(C)(C)n1nc(-c2ccc3ccccc3c2)c2c(N)ncnc21 [Compound 6h, 1-tert-butyl-3-(2-naphthyl)-1H-pyrazolo[3,4-d]pyrimidin-4-amine]	–
101 ± 8.3	101 ± 8.3	> 50000	CC(C)(C)n1nc(CCCc2ccccc2)c2c(N)ncnc21 [Compound 7i, 1-tert-butyl-3-(3-phenylpropyl)-1H-pyrazolo[3,4-d]pyrimidin-4-amine]	–
83 ± 9.4	–	–	CC(C)(C)n1nc(-c2ccccc2F)c2c(N)ncnc21 [Compound 6d, 1-tert-butyl-3-(2-fluorophenyl)-1H-pyrazolo[3,4-d]pyrimidin-4-amine]	–
59 ± 3.3	–	–	CC(C)(C)n1nc(Cc2cccc(Br)c2)c2c(N)ncnc21 [Compound 7f, 3-(3-bromobenzyl)-1-tert-butyl-1H-pyrazolo[3,4-d]pyrimidin-4-amine]	–
90 ± 5.1	–	–	CC(C)(C)n1nc(Cc2cccc(Cl)c2Cl)c2c(N)ncnc21 [Compound 7g, 1-tert-butyl-3-(2,3-dichlorobenzyl)-1H-pyrazolo[3,4-d]pyrimidin-4-amine]	–
41 ± 2.6	41 ± 2.6	451	CC(C)(C)n1nc(Cc2ccccc2Cl)c2c(N)ncnc21 [Compound 7b, 1-tert-butyl-3-(2-chlorobenzyl)-1H-pyrazolo[3,4-d]pyrimidin-4-amine]	–
43 ± 6.6	43 ± 6.6	535	CC(C)(C)n1nc(Cc2ccccc2Br)c2c(N)ncnc21 [Compound 7e, 3-(2-bromobenzyl)-1-tert-butyl-1H-pyrazolo[3,4-d]pyrimidin-4-amine]	–
77 ± 2.9	76 ± 2.9	9490	CC(C)(C)n1nc(-c2ccccc2)c2c(N)ncnc21 [Compound 6a, 1-tert-butyl-3-phenyl-1H-pyrazolo[3,4-d]pyrimidin-4-amine]	–
81 ± 4	–	–	CC(C)(C)n1nc(-c2ccc(F)cc2)c2c(N)ncnc21 [Compound 6b, 1-tert-butyl-3-(4-fluorophenyl)-1H-pyrazolo[3,4-d]pyrimidin-4-amine]	–
80 ± 7	–	–	COc1ccc(-c2nn(C(C)(C)C)c3ncnc(N)c23)cc1 [Compound 6e, 1-tert-butyl-3-(4-methoxyphenyl)-1H-pyrazolo[3,4-d]pyrimidin-4-amine]	–
92.8 ± 5.8	93 ± 5.8	> 50000	CC(C)(C)n1nc(CCCCc2ccccc2)c2c(N)ncnc21 [Compound 7k, 1-tert-butyl-3-(4-phenylbutyl)-1H-pyrazolo[3,4-d]pyrimidin-4-amine]	–
